According to ChEMBL document CHEMBL4828751, “Discovery of novel tubulin/HDAC dual-targeting inhibitors with strong antitumor and antiangiogenic potency” (Eur J Med Chem, 2021):

The molecules below were run on U-937 (assay: Antiproliferative activity against human U-937 cells assessed as cell growth inhibition after 72 hrs by CCK8 assay). Conditions: U-937, 72 h.
Type: functional, cell-based

IC50 | Compound
> 5000 nM | COc1ccc(/C=C\c2cc(OC)c(OC)c(OC)c2)cc1Oc1ccc(C(C)(C)C(=O)NO)cc1
> 5000 nM | COc1ccc(C(=O)c2cc(OC)c(OC)c(OC)c2)cc1Oc1ccc(C(=O)NO)cc1
> 5000 nM | COc1ccc(C(=O)c2cc(OC)c(OC)c(OC)c2)cc1OCCCC(=O)Nc1ccccc1N
> 5000 nM | COc1ccc(C(=O)c2cc(OC)c(OC)c(OC)c2)cc1OCCCC(=O)NO
> 5000 nM | COc1ccc(C(=O)c2cc(OC)c(OC)c(OC)c2)cc1OCCCCC(=O)NO
2540 nM | COc1ccc(/C=C\c2cc(OC)c(OC)c(OC)c2)cc1OCCCC(=O)NO
1680 nM | COc1ccc(C(=O)c2cc(OC)c(OC)c(OC)c2)c(/C=C/C(=O)Nc2ccccc2N)c1
> 5000 nM | COc1ccc(/C=C\c2cc(OC)c(OC)c(OC)c2)cc1OCCCCC(=O)Nc1ccccc1N
3320 nM | COc1ccc(/C=C\c2cc(OC)c(OC)c(OC)c2)cc1Oc1ccc(C(=O)NO)cn1
805 nM | COc1ccc(/C=C\c2cc(OC)c(OC)c(OC)c2)cc1/C=C/C(=O)NO
4330 nM | COc1ccc(/C=C\c2cc(OC)c(OC)c(OC)c2)cc1Oc1ccc(C(=O)Nc2ccccc2N)cc1
995 nM | COc1ccc(/C=C\c2cc(OC)c(OC)c(OC)c2)c(/C=C/C(=O)NO)c1
3500 nM | COc1ccc(/C=C\c2cc(OC)c(OC)c(OC)c2)cc1Oc1ccc(C(=O)NO)cc1
3320 nM | COc1ccc(/C=C\c2cc(OC)c(OC)c(OC)c2)cc1OCCCCC(=O)NO
> 5000 nM | COc1ccc(C(=O)c2cc(OC)c(OC)c(OC)c2)cc1OCc1ccc(C(=O)Nc2ccccc2N)cc1
389 nM | COc1ccc(/C=C\c2cc(OC)c(OC)c(OC)c2)cc1OCc1ccc(C(=O)NO)cc1

These molecules were tested on A549 (assay: Antiproliferative activity against human A549 cells assessed as cell growth inhibition after 72 hrs by SRB assay). Conditions: A549, 72 h.
Type: functional, cell-based

IC50 | Compound
> 5000 nM | COc1ccc(/C=C\c2cc(OC)c(OC)c(OC)c2)cc1Oc1ccc(C(C)(C)C(=O)NO)cc1
> 5000 nM | COc1ccc(C(=O)c2cc(OC)c(OC)c(OC)c2)cc1Oc1ccc(C(=O)NO)cc1
> 5000 nM | COc1ccc(C(=O)c2cc(OC)c(OC)c(OC)c2)cc1OCCCC(=O)Nc1ccccc1N
> 5000 nM | COc1ccc(C(=O)c2cc(OC)c(OC)c(OC)c2)cc1OCCCC(=O)NO
> 5000 nM | COc1ccc(C(=O)c2cc(OC)c(OC)c(OC)c2)cc1OCCCCC(=O)NO
371 nM | COc1ccc(/C=C\c2cc(OC)c(OC)c(OC)c2)cc1OCCCC(=O)NO
3210 nM | COc1ccc(C(=O)c2cc(OC)c(OC)c(OC)c2)c(/C=C/C(=O)Nc2ccccc2N)c1
> 5000 nM | COc1ccc(/C=C\c2cc(OC)c(OC)c(OC)c2)cc1OCCCCC(=O)Nc1ccccc1N
2440 nM | COc1ccc(/C=C\c2cc(OC)c(OC)c(OC)c2)cc1Oc1ccc(C(=O)NO)cn1
254 nM | COc1ccc(/C=C\c2cc(OC)c(OC)c(OC)c2)cc1/C=C/C(=O)NO
> 5000 nM | COc1ccc(/C=C\c2cc(OC)c(OC)c(OC)c2)cc1Oc1ccc(C(=O)Nc2ccccc2N)cc1
2230 nM | COc1ccc(/C=C\c2cc(OC)c(OC)c(OC)c2)c(/C=C/C(=O)NO)c1
1470 nM | COc1ccc(/C=C\c2cc(OC)c(OC)c(OC)c2)cc1Oc1ccc(C(=O)NO)cc1
4810 nM | COc1ccc(/C=C\c2cc(OC)c(OC)c(OC)c2)cc1OCCCCC(=O)NO
> 5000 nM | COc1ccc(C(=O)c2cc(OC)c(OC)c(OC)c2)cc1OCc1ccc(C(=O)Nc2ccccc2N)cc1
440 nM | COc1ccc(/C=C\c2cc(OC)c(OC)c(OC)c2)cc1OCc1ccc(C(=O)NO)cc1

Each molecule was assayed on MGC-803 (assay: Antiproliferative activity against human MGC-803 cells assessed as cell growth inhibition after 72 hrs by SRB assay). Conditions: MGC-803, 72 h.
Type: functional, cell-based

IC50 | Compound
> 5000 nM | COc1ccc(/C=C\c2cc(OC)c(OC)c(OC)c2)cc1Oc1ccc(C(C)(C)C(=O)NO)cc1
> 5000 nM | COc1ccc(C(=O)c2cc(OC)c(OC)c(OC)c2)cc1Oc1ccc(C(=O)NO)cc1
> 5000 nM | COc1ccc(C(=O)c2cc(OC)c(OC)c(OC)c2)cc1OCCCC(=O)Nc1ccccc1N
> 5000 nM | COc1ccc(C(=O)c2cc(OC)c(OC)c(OC)c2)cc1OCCCC(=O)NO
> 5000 nM | COc1ccc(C(=O)c2cc(OC)c(OC)c(OC)c2)cc1OCCCCC(=O)NO
63 nM | COc1ccc(/C=C\c2cc(OC)c(OC)c(OC)c2)cc1OCCCC(=O)NO
1610 nM | COc1ccc(C(=O)c2cc(OC)c(OC)c(OC)c2)c(/C=C/C(=O)Nc2ccccc2N)c1
> 5000 nM | COc1ccc(/C=C\c2cc(OC)c(OC)c(OC)c2)cc1OCCCCC(=O)Nc1ccccc1N
1090 nM | COc1ccc(/C=C\c2cc(OC)c(OC)c(OC)c2)cc1Oc1ccc(C(=O)NO)cn1
208 nM | COc1ccc(/C=C\c2cc(OC)c(OC)c(OC)c2)cc1/C=C/C(=O)NO
1360 nM | COc1ccc(/C=C\c2cc(OC)c(OC)c(OC)c2)cc1Oc1ccc(C(=O)Nc2ccccc2N)cc1
146 nM | COc1ccc(/C=C\c2cc(OC)c(OC)c(OC)c2)c(/C=C/C(=O)NO)c1
927 nM | COc1ccc(/C=C\c2cc(OC)c(OC)c(OC)c2)cc1Oc1ccc(C(=O)NO)cc1
1130 nM | COc1ccc(/C=C\c2cc(OC)c(OC)c(OC)c2)cc1OCCCCC(=O)NO
> 5000 nM | COc1ccc(C(=O)c2cc(OC)c(OC)c(OC)c2)cc1OCc1ccc(C(=O)Nc2ccccc2N)cc1
182 nM | COc1ccc(/C=C\c2cc(OC)c(OC)c(OC)c2)cc1OCc1ccc(C(=O)NO)cc1

Each molecule was assayed on HepG2 (assay: Antiproliferative activity against human HepG2 cells assessed as cell growth inhibition after 72 hrs by SRB assay). Conditions: HepG2, 72 h.
Type: functional, cell-based

IC50 | Compound
> 5000 nM | COc1ccc(/C=C\c2cc(OC)c(OC)c(OC)c2)cc1Oc1ccc(C(C)(C)C(=O)NO)cc1
> 5000 nM | COc1ccc(C(=O)c2cc(OC)c(OC)c(OC)c2)cc1Oc1ccc(C(=O)NO)cc1
> 5000 nM | COc1ccc(C(=O)c2cc(OC)c(OC)c(OC)c2)cc1OCCCC(=O)Nc1ccccc1N
> 5000 nM | COc1ccc(C(=O)c2cc(OC)c(OC)c(OC)c2)cc1OCCCC(=O)NO
> 5000 nM | COc1ccc(C(=O)c2cc(OC)c(OC)c(OC)c2)cc1OCCCCC(=O)NO
81 nM | COc1ccc(/C=C\c2cc(OC)c(OC)c(OC)c2)cc1OCCCC(=O)NO
1560 nM | COc1ccc(C(=O)c2cc(OC)c(OC)c(OC)c2)c(/C=C/C(=O)Nc2ccccc2N)c1
> 5000 nM | COc1ccc(/C=C\c2cc(OC)c(OC)c(OC)c2)cc1OCCCCC(=O)Nc1ccccc1N
> 5000 nM | COc1ccc(/C=C\c2cc(OC)c(OC)c(OC)c2)cc1Oc1ccc(C(=O)NO)cn1
252 nM | COc1ccc(/C=C\c2cc(OC)c(OC)c(OC)c2)cc1/C=C/C(=O)NO
4700 nM | COc1ccc(/C=C\c2cc(OC)c(OC)c(OC)c2)cc1Oc1ccc(C(=O)Nc2ccccc2N)cc1
164 nM | COc1ccc(/C=C\c2cc(OC)c(OC)c(OC)c2)c(/C=C/C(=O)NO)c1
4550 nM | COc1ccc(/C=C\c2cc(OC)c(OC)c(OC)c2)cc1Oc1ccc(C(=O)NO)cc1
3560 nM | COc1ccc(/C=C\c2cc(OC)c(OC)c(OC)c2)cc1OCCCCC(=O)NO
> 5000 nM | COc1ccc(C(=O)c2cc(OC)c(OC)c(OC)c2)cc1OCc1ccc(C(=O)Nc2ccccc2N)cc1
1330 nM | COc1ccc(/C=C\c2cc(OC)c(OC)c(OC)c2)cc1OCc1ccc(C(=O)NO)cc1

These molecules were tested on MCF7 (assay: Antiproliferative activity against human MCF7 cells assessed as cell growth inhibition after 72 hrs by SRB assay). Conditions: MCF7, 72 h.
Type: functional, cell-based

IC50 | Compound
> 5000 nM | COc1ccc(/C=C\c2cc(OC)c(OC)c(OC)c2)cc1Oc1ccc(C(C)(C)C(=O)NO)cc1
> 5000 nM | COc1ccc(C(=O)c2cc(OC)c(OC)c(OC)c2)cc1Oc1ccc(C(=O)NO)cc1
> 5000 nM | COc1ccc(C(=O)c2cc(OC)c(OC)c(OC)c2)cc1OCCCC(=O)Nc1ccccc1N
> 5000 nM | COc1ccc(C(=O)c2cc(OC)c(OC)c(OC)c2)cc1OCCCC(=O)NO
> 5000 nM | COc1ccc(C(=O)c2cc(OC)c(OC)c(OC)c2)cc1OCCCCC(=O)NO
982 nM | COc1ccc(/C=C\c2cc(OC)c(OC)c(OC)c2)cc1OCCCC(=O)NO
1180 nM | COc1ccc(C(=O)c2cc(OC)c(OC)c(OC)c2)c(/C=C/C(=O)Nc2ccccc2N)c1
> 5000 nM | COc1ccc(/C=C\c2cc(OC)c(OC)c(OC)c2)cc1OCCCCC(=O)Nc1ccccc1N
485 nM | COc1ccc(/C=C\c2cc(OC)c(OC)c(OC)c2)cc1Oc1ccc(C(=O)NO)cn1
158 nM | COc1ccc(/C=C\c2cc(OC)c(OC)c(OC)c2)cc1/C=C/C(=O)NO
1570 nM | COc1ccc(/C=C\c2cc(OC)c(OC)c(OC)c2)cc1Oc1ccc(C(=O)Nc2ccccc2N)cc1
641 nM | COc1ccc(/C=C\c2cc(OC)c(OC)c(OC)c2)c(/C=C/C(=O)NO)c1
1470 nM | COc1ccc(/C=C\c2cc(OC)c(OC)c(OC)c2)cc1Oc1ccc(C(=O)NO)cc1
2810 nM | COc1ccc(/C=C\c2cc(OC)c(OC)c(OC)c2)cc1OCCCCC(=O)NO
> 5000 nM | COc1ccc(C(=O)c2cc(OC)c(OC)c(OC)c2)cc1OCc1ccc(C(=O)Nc2ccccc2N)cc1
817 nM | COc1ccc(/C=C\c2cc(OC)c(OC)c(OC)c2)cc1OCc1ccc(C(=O)NO)cc1

Each molecule was assayed on HeLa (assay: Antiproliferative activity against human HeLa cells assessed as cell growth inhibition after 72 hrs by SRB assay). Conditions: not given.
Type: functional, cell-based

IC50 | Compound
> 5000 nM | COc1ccc(/C=C\c2cc(OC)c(OC)c(OC)c2)cc1Oc1ccc(C(C)(C)C(=O)NO)cc1
> 5000 nM | COc1ccc(C(=O)c2cc(OC)c(OC)c(OC)c2)cc1Oc1ccc(C(=O)NO)cc1
> 5000 nM | COc1ccc(C(=O)c2cc(OC)c(OC)c(OC)c2)cc1OCCCC(=O)Nc1ccccc1N
> 5000 nM | COc1ccc(C(=O)c2cc(OC)c(OC)c(OC)c2)cc1OCCCC(=O)NO
> 5000 nM | COc1ccc(C(=O)c2cc(OC)c(OC)c(OC)c2)cc1OCCCCC(=O)NO
31 nM | COc1ccc(/C=C\c2cc(OC)c(OC)c(OC)c2)cc1OCCCC(=O)NO
1040 nM | COc1ccc(C(=O)c2cc(OC)c(OC)c(OC)c2)c(/C=C/C(=O)Nc2ccccc2N)c1
> 5000 nM | COc1ccc(/C=C\c2cc(OC)c(OC)c(OC)c2)cc1OCCCCC(=O)Nc1ccccc1N
2440 nM | COc1ccc(/C=C\c2cc(OC)c(OC)c(OC)c2)cc1Oc1ccc(C(=O)NO)cn1
257 nM | COc1ccc(/C=C\c2cc(OC)c(OC)c(OC)c2)cc1/C=C/C(=O)NO
> 5000 nM | COc1ccc(/C=C\c2cc(OC)c(OC)c(OC)c2)cc1Oc1ccc(C(=O)Nc2ccccc2N)cc1
61 nM | COc1ccc(/C=C\c2cc(OC)c(OC)c(OC)c2)c(/C=C/C(=O)NO)c1
1470 nM | COc1ccc(/C=C\c2cc(OC)c(OC)c(OC)c2)cc1Oc1ccc(C(=O)NO)cc1
189 nM | COc1ccc(/C=C\c2cc(OC)c(OC)c(OC)c2)cc1OCCCCC(=O)NO
> 5000 nM | COc1ccc(C(=O)c2cc(OC)c(OC)c(OC)c2)cc1OCc1ccc(C(=O)Nc2ccccc2N)cc1
440 nM | COc1ccc(/C=C\c2cc(OC)c(OC)c(OC)c2)cc1OCc1ccc(C(=O)NO)cc1

What follows are molecules tested against Histone deacetylase (assay: Inhibition of HDAC (unknown origin)). Conditions: not given.
Type: protein assay, Homo sapiens

IC50 | Compound
1400 nM | COc1ccc(/C=C\c2cc(OC)c(OC)c(OC)c2)cc1OCCCC(=O)NO
390 nM | COc1ccc(/C=C\c2cc(OC)c(OC)c(OC)c2)cc1OCc1ccc(C(=O)NO)cc1

These molecules were tested against Tubulin (assay: Inhibition of tubulin polymerization (unknown origin) measured after 1 min by fluorescence assay). Conditions: read-out: IC50.
Type: protein-complex assay, Homo sapiens

IC50 | Compound
5200 nM | COc1ccc(/C=C\c2cc(OC)c(OC)c(OC)c2)cc1OCCCC(=O)NO
8600 nM | COc1ccc(/C=C\c2cc(OC)c(OC)c(OC)c2)cc1OCc1ccc(C(=O)NO)cc1
